The values that follow come from patent US20100160443A1, “COMPOUNDS USEFUL FOR TREATING NEUROLOGICAL DISORDERS” (Yissum Research Development Company of The Hebrew …, priority 2003, published 2010).

The structures appear in SMILES notation. “Also recorded” adds a separate entry of the source. Where two headings read alike, the source gives them in different places. Marks after values point to notes of the source that are not given here.

The subject of series [1] is maximal electroshock (MES) test. The following applies: rat, cited from earlier work.
Series [2] has as its system tactile allodynia in rats with SNL neuropathy. The following applies: i.p., rat; literature data (footnoted); cited from earlier work.
For series [3] the following is noted: cited from earlier work.
Series [4] deals with tactile allodynia in rats with SNL neuropathy. Briefly: Tactile allodynia (von Frey filaments) in the spinal nerve ligation (SNL) model of neuropathic pain. In kind it is in vivo, rat. The following applies: for ED50: Rattus norvegicus, 1 h, read-out: ED50 (tactile allodynia threshold). The procedure:
The effect on neuropathic pain (tactile allodynia) was measured 5-6 days following operation as disclosed above. Rats responding to mechanical stimuli of 10 g or less (in the operated leg) were eligible for the study and were included in the drug administration regime.
Briefly, under ketamine-xylazine anesthesia the rat was placed in a prone position and the left paraspinal muscles were separated from spinous processes at the L4-S2 level. Part of the L6 transverse process was removed and the L4-L6 spinal nerves were identified. The L5-L6 spinal nerves were isolated and tightly ligated and cut, distal to the dorsal root ganglion and proximal to the formation of the sciatic nerve. Following complete homeostasis the wound was sutured.
A volume of 4 ml/kg (volume of injected suspension/rat body weight) was then injected to the rats. […] The three drugs and the control vehicle were administered i.p. (intraperitoneally) to rats at postoperative days 7, 14 and 21 in a double blind randomized crossover manner.
The rat was placed on a metal mesh floor covered with a transparent plastic dome, a period of acclimatization was allowed prior to testing. VFFs were applied from underneath the mesh floor to the plantar surface of the foot. Each trial consisted of repeated applications of each of the VFFs in an ascending order for 5 times, each for a period of 1 second. testing between two consecutive ascending VFFs was separated by period of 2 min. If the rat withdrew the foot at least 3 times out of 5 at a specific VFF no further ascending filaments were tested and this filament was considered as a withdrawal threshold (response). Mechanical stimulus trials with the series of ascending VFF were repeated 2 times for a given time point. The repeated measurements were averaged and taken as the paw withdrawal threshold on a given time point.
The absolute threshold and the difference in the allodynic threshold (time point minus baseline) values were tested using Mann-Whitney Test and Kruskal-Wallis Nonparametric test (two tailed) followed by Dunn's Multiple comparison test. The ED50 (median effective dose) was calculated by using Probit analysis method.
Briefly, under ketamine-xylazine anesthesia (85 mg kg^−1, i.p and 13 mg kg^−1, i.p, respectively) rats were placed in a prone position and paraspinal muscles on the left were separated from the L4-S2 spinous processes. Part of the L6 transverse process was removed and the underlying L4-L6 spinal nerves were identified. The L5 and L6 spinal nerves were isolated, tightly ligated with 5-0 silk, and cut just distal to the ligature. The ligature was approximately 8 mm distal to the corresponding dorsal root ganglion (DRG). Following complete homeostasis the wound was sutured in layers, the skin closed with Michel clips, topical bacteriostatic power was applied, and 20000 units of duplo-penicillin was injected intramuscularly (i.m.).
We used a set of 9 nylon von Frey monofilaments (VFF, Semmes-Weinstein monofilaments, Stoelting, Wood Dale, Ill., USA) to quantify foot withdrawal in response to normally innocuous tactile stimuli. […] Forces were calibrated by lowering filaments onto the pan of an electronic balance until they just bent.
Rats were placed on a raised wire mesh screen (gaps 4 mm×4 mm), which allowed access to the plantar surface of the hindpaw from below. They were covered with a transparent plastic dome, 13 cm high, which prevented rearing on the hindlimbs. A period of 20 min was allowed for acclimation prior to sensory testing. The mid-plantar hindpaw skin just caudal to the footpads, half way between medial and lateral edges of the foot, was subjected to a series of 5 brief probes, spaced at about 1 s. Each such stimulus was sufficient to just bend the filament. Testing began with the filament with the weakest initial bending force (0.6 g). […] Response threshold was the bending force of the first monofilament in the series that evoked a criterion ≧⅗ responses.

The subject of series [5] is neural tube defects (NTDs). The following applies: cited from earlier work.
Series [6] has as its system maximal electroshock (MES) test. Description: Anticonvulsant activity, maximal electroshock (MES) test. Format: in vivo. The following applies: different study, data not shown. The source says:
Pain 73, 223-230); Blom, 1962 (BLOM, S. (1962). Trigeminal neuralgia: its treatment with a new anticonvulsant drug. Lancet; 1, 839-840); Rogawski & Loscher, 2004b (ROGAWSKI, M. A., & LOSCHER, W. (2004b). The neurobiology of antiepileptic drugs for the treatment of nonepileptic conditions. Nat. Med., 10, 685-692)). The availability of ED50 data for a series of new anticonvulsant isomers and analogues of VPD (valpromide) provides an opportunity for testing this hypothesis. […] Philadelphia: Lippincott Williams & Wilkins)).
On the technique in general: Protection in the maximal electroshock model is a classic sign of anticonvulsant action.

For series [7], the system named is motor performance (rotarod test). Description: Neurological motor dysfunction tests (accelerating rotarod, observation for sedation). The method, then:
On the day of testing, a baseline response was obtained, and rats were subsequently administered drug or vehicle. […] In addition, we examined our rats individually for signs of motor dysfunction and sedation as assessed by posture and gate during spontaneous and induced movement, grooming, chewing, stepping reflex, and startle reflex evoked by tapping on the cage.
For each drug and dose, attenuation of tactile allodynia (threshold measured in g) was measured. […] These areas under the response curve values for every group of rats per dose were evaluated against vehicle treatment using the nonparametric Wilcoxon one tailed test (dose of drug tested vs. vehicle on the same treatment). […] A p value <0.05 was considered statistically significant.

Setting [8] is: p.o., taken from previous studies.
Where [9] appears, read: i.p., rat, 60 min post injection, DID at 120 min.

As for `NC(=O)N1c2ccccc2C=Cc2ccccc21` [CBZ, carbamazepine], the MES-ED50 in series [1] (setting [8]) is 5.4^a mg kg^−1. Besides, in series [2], the SNL-ED50 is >30^c mg kg^−1. In addition, the Brain-to-plasma ratio in series [3] (literature data) is recorded as 1.0^i.
With `CC(C)C(C(=O)O)C(C)C` [DIA, diisopropylacetic acid], the “antiallodynic effect / effectiveness for treating neuropathic pain” value (from here on “antiallodynic effect / effectiveness”) in series [4] (rat, in vivo) is recorded as “effective for treating neuropathic pain”. In series [4] (rat, in vivo, ip), the SNL-ED50 was above 300 mg/kg, the “lowest effective dose (significant increase of the allodynic threshold vs vehicle)” value was found to be 300 mg/kg and the “rats regarded as protected at the highest dose” value is 25%.
Consider `NC(=O)OCC(COC(N)=O)c1ccccc1` [FBM, felbamate], for which the MES-ED50 in series [1] (setting [8]) was 25.3^a mg kg^−1. In addition, the SNL-ED50 in series [2] is >600^d mg kg^−1. Besides, the Brain-to-plasma ratio in series [3] (literature data) is recorded as 0.64^f.
`NCC1(CC(=O)O)CCCCC1` [GBP, gabapentin]: the MES-ED50 in series [1] (in vivo, po) was 14.8^a mg kg^−1. In series [2], the SNL-ED50 is 34^d mg kg^−1. Further, in series [3] (rat, in vivo), the Brain-to-plasma ratio is on record as 0.85^e.
As to `Nc1nnc(-c2cccc(Cl)c2Cl)c(N)n1` [LTG, lamotrigine], the MES-ED50 in series [1] (setting [8]) was 1.3^a mg kg^−1. Besides, the SNL-ED50 in series [2] is given as >100^d mg kg^−1. In addition, in series [3] (literature data), the Brain-to-plasma ratio was 0.4^h.
As to `CNC(=O)C1C(C)(C)C1(C)C` [M-TMCD, N-methyl-2,2,3,3-tetramethylcyclopropanecarboxamide], the ED50 in series [4] (ip) amounted to 41 mg/kg. The “antiallodynic effect / effectiveness” value in series [4] (rat, in vivo) was “effective for treating neuropathic pain”. Also, in series [4] (rat, in vivo, ip), the “dose dependence of the antiallodynic effect” value (shortened to “dose dependence”) was “in a dose dependent manner” and the “time of maximal effect after administration” value (“time of maximal effect” for short) is recorded as 60 min. Further, in series [5] (in vivo), the teratogenicity result is on record as “lack of teratogenicity”.
In series [4] (setting [9]), `CCCC(CCC)C(=O)NC` [MVPD, N-methyl-valpromide, reference compound] returned an SNL-ED50 above 120 mg/kg. Also, in series [1] (setting [8]), the MES-ED50 was 65 mg/kg.
On to `CC1(C)C(C(=O)O)C1(C)C` [TMCA, 2,2,3,3-tetramethylcyclopropanecarboxylic acid], for which, in series [4] (SNL model, rat), the “antiallodynic effect / effectiveness” value was “exhibit antiallodynic effect”. Further, in series [6], the “anticonvulsant activity in the rat-MES test” value is “without any anticonvulsant activity”.
`CC1(C)C(C(N)=O)C1(C)C` [TMCD, 2,2,3,3-tetramethylcyclopropanecarboxamide]: in series [4] (ip), the 50% effective dose (ED50) came to 84.5 mg/kg. Moreover, the “antiallodynic effect / effectiveness” value in series [4] (rat, in vivo) was “exhibit antiallodynic effect; also recorded: effective for treating neuropathic pain”. Also, in series [4] (rat, in vivo, ip), the “dose dependence” value is listed as “in a dose dependent manner” and the “time of maximal effect” value came out at 60 min. Also, the “anticonvulsant activity in the rat-MES test” value in series [6] is “without any anticonvulsant activity”.
For `CCC(C)C(CC)C(=O)O` (stereo not shown) [VCA, 2-ethyl-3-methyl-pentanoic acid], the SNL-ED50 in series [4] (setting [9]) is above 300 mg/kg.
In the case of `CCC(C)C(CC)C(N)=O` (stereo not shown) [VCD, 2-ethyl-3-methyl-pentanoic acid amide], the ED50 in series [4] (ip) is 52.3 mg/kg. In addition, the “dose dependence” value in series [4] (i.p., rat) was “in a dose dependent manner”. Also, the “antiallodynic effect / effectiveness” value in series [4] (rat, in vivo) is recorded as “effective for treating neuropathic pain”. Moreover, in series [4] (rat, in vivo, ip), the SNL-ED50 worked out at 52 mg/kg and the “time of maximal effect” value came out at 60 min. For the same molecule, the MES-ED50 in series [1] (setting [8]) is given as 29^c mg kg^−1. Also, the “neurological motor dysfunction or sedation at the highest drug dose tested” value in series [7] (highest drug dose tested, normal rats) is “not sufficient to cause neurological motor dysfunction or sedation”. Further, in series [5] (literature), the teratogenicity result is reported as “distinctly less teratogenic than VPA”.
Consider `CCCC(CCC)C(N)=O` [VPD, valpromide, reference compound], for which, in series [4] (setting [9]), the SNL-ED50 worked out at 61 mg/kg. Further, the MES-ED50 in series [1] (setting [8]) is 32^b mg kg^−1. Further, in series [7] (rat, in vivo), the “neurological motor dysfunction or sedation at the highest drug dose tested” value is reported as “not sufficient to cause neurological motor dysfunction or sedation”. For the same molecule, the Brain-to-plasma ratio in series [3] (literature data) is 0.84^c.

The ED50 is the dose at which the effect has come halfway, by size or by number of responders.
